Numbers after ± are expanded uncertainties.
Assay: xn = mol fraction of the nth substance listed
Conditions: 303.15 K, 100 kPa, Liquid, Alternating current cell with electrodes

CCCC[N+]1(C)CCCC1.N#CN=C=[N-] [1-butyl-1-methylpyrrolidinium dicyanamide] + O=C1CCCO1
electrical conductivity (Frequency=0.00347222 MHz, x1 = 0.4985): 2.33 ± 0.024 S/m
electrical conductivity (Frequency=0.00347222 MHz, x1 = 0.6954): 1.912 ± 0.019 S/m
electrical conductivity (Frequency=0.00347222 MHz, x1 = 0.9013): 1.607 ± 0.016 S/m
electrical conductivity (Frequency=0.00347222 MHz, x1 = 1): 1.527 ± 0.015 S/m
electrical conductivity (Frequency=0.004 MHz, x1 = 0.0463): 1.58 ± 0.028 S/m
electrical conductivity (Frequency=0.004 MHz, x1 = 0.0987): 2.38 ± 0.03 S/m
electrical conductivity (Frequency=0.004 MHz, x1 = 0.1449): 2.71 ± 0.029 S/m
electrical conductivity (Frequency=0.004 MHz, x1 = 0.1859): 2.9 ± 0.029 S/m
electrical conductivity (Frequency=0.004 MHz, x1 = 0.2493): 2.85 ± 0.029 S/m
electrical conductivity (Frequency=0.004 MHz, x1 = 0.3029): 2.79 ± 0.028 S/m
electrical conductivity (Frequency=0.004 MHz, x1 = 0.3845): 2.618 ± 0.026 S/m
electrical conductivity (Frequency=0.004 MHz, x1 = 0.4985): 2.33 ± 0.024 S/m
electrical conductivity (Frequency=0.004 MHz, x1 = 0.6954): 1.912 ± 0.019 S/m
electrical conductivity (Frequency=0.004 MHz, x1 = 0.9013): 1.607 ± 0.016 S/m
electrical conductivity (Frequency=0.004 MHz, x1 = 1): 1.527 ± 0.015 S/m
electrical conductivity (Frequency=0.00446429 MHz, x1 = 0.0463): 1.58 ± 0.028 S/m
electrical conductivity (Frequency=0.00446429 MHz, x1 = 0.0987): 2.38 ± 0.03 S/m
electrical conductivity (Frequency=0.00446429 MHz, x1 = 0.1449): 2.71 ± 0.029 S/m
electrical conductivity (Frequency=0.00446429 MHz, x1 = 0.1859): 2.9 ± 0.029 S/m
electrical conductivity (Frequency=0.00446429 MHz, x1 = 0.2493): 2.85 ± 0.029 S/m
electrical conductivity (Frequency=0.00446429 MHz, x1 = 0.3029): 2.79 ± 0.028 S/m
electrical conductivity (Frequency=0.00446429 MHz, x1 = 0.3845): 2.618 ± 0.026 S/m
electrical conductivity (Frequency=0.00446429 MHz, x1 = 0.4985): 2.33 ± 0.024 S/m
electrical conductivity (Frequency=0.00446429 MHz, x1 = 0.6954): 1.912 ± 0.019 S/m
electrical conductivity (Frequency=0.00446429 MHz, x1 = 0.9013): 1.608 ± 0.016 S/m
electrical conductivity (Frequency=0.00446429 MHz, x1 = 1): 1.527 ± 0.015 S/m
electrical conductivity (Frequency=0.005 MHz, x1 = 0.0463): 1.58 ± 0.028 S/m
electrical conductivity (Frequency=0.005 MHz, x1 = 0.0987): 2.38 ± 0.03 S/m
electrical conductivity (Frequency=0.005 MHz, x1 = 0.1449): 2.71 ± 0.029 S/m
electrical conductivity (Frequency=0.005 MHz, x1 = 0.1859): 2.9 ± 0.029 S/m
electrical conductivity (Frequency=0.005 MHz, x1 = 0.2493): 2.85 ± 0.029 S/m
electrical conductivity (Frequency=0.005 MHz, x1 = 0.3029): 2.79 ± 0.028 S/m
electrical conductivity (Frequency=0.005 MHz, x1 = 0.3845): 2.618 ± 0.026 S/m
electrical conductivity (Frequency=0.005 MHz, x1 = 0.4985): 2.33 ± 0.024 S/m
electrical conductivity (Frequency=0.005 MHz, x1 = 0.6954): 1.912 ± 0.019 S/m
electrical conductivity (Frequency=0.005 MHz, x1 = 0.9013): 1.608 ± 0.016 S/m
electrical conductivity (Frequency=0.005 MHz, x1 = 1): 1.527 ± 0.015 S/m
electrical conductivity (Frequency=0.005454 MHz, x1 = 0.0463): 1.58 ± 0.028 S/m
electrical conductivity (Frequency=0.005454 MHz, x1 = 0.0987): 2.38 ± 0.03 S/m
electrical conductivity (Frequency=0.005454 MHz, x1 = 0.1449): 2.71 ± 0.029 S/m
electrical conductivity (Frequency=0.005454 MHz, x1 = 0.1859): 2.9 ± 0.029 S/m
electrical conductivity (Frequency=0.005454 MHz, x1 = 0.2493): 2.86 ± 0.029 S/m
electrical conductivity (Frequency=0.005454 MHz, x1 = 0.3029): 2.79 ± 0.028 S/m
electrical conductivity (Frequency=0.005454 MHz, x1 = 0.3845): 2.619 ± 0.026 S/m
electrical conductivity (Frequency=0.005454 MHz, x1 = 0.4985): 2.33 ± 0.024 S/m
electrical conductivity (Frequency=0.005454 MHz, x1 = 0.6954): 1.912 ± 0.019 S/m
electrical conductivity (Frequency=0.005454 MHz, x1 = 0.9013): 1.608 ± 0.016 S/m
electrical conductivity (Frequency=0.005454 MHz, x1 = 1): 1.527 ± 0.015 S/m
electrical conductivity (Frequency=0.006 MHz, x1 = 0.0463): 1.58 ± 0.028 S/m
electrical conductivity (Frequency=0.006 MHz, x1 = 0.0987): 2.38 ± 0.03 S/m
electrical conductivity (Frequency=0.006 MHz, x1 = 0.1449): 2.71 ± 0.029 S/m
electrical conductivity (Frequency=0.006 MHz, x1 = 0.1859): 2.9 ± 0.029 S/m
electrical conductivity (Frequency=0.006 MHz, x1 = 0.2493): 2.86 ± 0.029 S/m
electrical conductivity (Frequency=0.006 MHz, x1 = 0.3029): 2.79 ± 0.028 S/m
electrical conductivity (Frequency=0.006 MHz, x1 = 0.3845): 2.619 ± 0.026 S/m
electrical conductivity (Frequency=0.006 MHz, x1 = 0.4985): 2.33 ± 0.024 S/m
electrical conductivity (Frequency=0.006 MHz, x1 = 0.6954): 1.912 ± 0.019 S/m
electrical conductivity (Frequency=0.006 MHz, x1 = 0.9013): 1.608 ± 0.016 S/m
electrical conductivity (Frequency=0.006 MHz, x1 = 1): 1.527 ± 0.015 S/m
electrical conductivity (Frequency=0.00652174 MHz, x1 = 0.0463): 1.58 ± 0.028 S/m
electrical conductivity (Frequency=0.00652174 MHz, x1 = 0.0987): 2.38 ± 0.03 S/m
electrical conductivity (Frequency=0.00652174 MHz, x1 = 0.1449): 2.71 ± 0.029 S/m
electrical conductivity (Frequency=0.00652174 MHz, x1 = 0.1859): 2.9 ± 0.029 S/m
electrical conductivity (Frequency=0.00652174 MHz, x1 = 0.2493): 2.86 ± 0.029 S/m
electrical conductivity (Frequency=0.00652174 MHz, x1 = 0.3029): 2.79 ± 0.028 S/m
electrical conductivity (Frequency=0.00652174 MHz, x1 = 0.3845): 2.619 ± 0.026 S/m
electrical conductivity (Frequency=0.00652174 MHz, x1 = 0.4985): 2.33 ± 0.024 S/m
electrical conductivity (Frequency=0.00652174 MHz, x1 = 0.6954): 1.913 ± 0.019 S/m
electrical conductivity (Frequency=0.00652174 MHz, x1 = 0.9013): 1.608 ± 0.016 S/m
electrical conductivity (Frequency=0.00652174 MHz, x1 = 1): 1.527 ± 0.015 S/m
electrical conductivity (Frequency=0.00694444 MHz, x1 = 0.0463): 1.58 ± 0.028 S/m
electrical conductivity (Frequency=0.00694444 MHz, x1 = 0.0987): 2.38 ± 0.03 S/m
electrical conductivity (Frequency=0.00694444 MHz, x1 = 0.1449): 2.71 ± 0.029 S/m
electrical conductivity (Frequency=0.00694444 MHz, x1 = 0.1859): 2.901 ± 0.029 S/m
electrical conductivity (Frequency=0.00694444 MHz, x1 = 0.2493): 2.86 ± 0.029 S/m
electrical conductivity (Frequency=0.00694444 MHz, x1 = 0.3029): 2.79 ± 0.028 S/m
electrical conductivity (Frequency=0.00694444 MHz, x1 = 0.3845): 2.619 ± 0.026 S/m
electrical conductivity (Frequency=0.00694444 MHz, x1 = 0.4985): 2.33 ± 0.024 S/m
electrical conductivity (Frequency=0.00694444 MHz, x1 = 0.6954): 1.913 ± 0.019 S/m
electrical conductivity (Frequency=0.00694444 MHz, x1 = 0.9013): 1.608 ± 0.016 S/m
electrical conductivity (Frequency=0.00694444 MHz, x1 = 1): 1.527 ± 0.015 S/m
electrical conductivity (Frequency=0.0075 MHz, x1 = 0.0463): 1.58 ± 0.028 S/m
electrical conductivity (Frequency=0.0075 MHz, x1 = 0.0987): 2.38 ± 0.03 S/m
electrical conductivity (Frequency=0.0075 MHz, x1 = 0.1449): 2.71 ± 0.029 S/m
electrical conductivity (Frequency=0.0075 MHz, x1 = 0.1859): 2.901 ± 0.029 S/m
electrical conductivity (Frequency=0.0075 MHz, x1 = 0.2493): 2.86 ± 0.029 S/m
electrical conductivity (Frequency=0.0075 MHz, x1 = 0.3029): 2.79 ± 0.028 S/m
electrical conductivity (Frequency=0.0075 MHz, x1 = 0.3845): 2.619 ± 0.026 S/m
electrical conductivity (Frequency=0.0075 MHz, x1 = 0.4985): 2.33 ± 0.024 S/m
electrical conductivity (Frequency=0.0075 MHz, x1 = 0.6954): 1.913 ± 0.019 S/m
electrical conductivity (Frequency=0.0075 MHz, x1 = 0.9013): 1.608 ± 0.016 S/m
electrical conductivity (Frequency=0.0075 MHz, x1 = 1): 1.527 ± 0.015 S/m
electrical conductivity (Frequency=0.008 MHz, x1 = 0.0463): 1.58 ± 0.028 S/m
electrical conductivity (Frequency=0.008 MHz, x1 = 0.0987): 2.38 ± 0.03 S/m
electrical conductivity (Frequency=0.008 MHz, x1 = 0.1449): 2.71 ± 0.029 S/m
electrical conductivity (Frequency=0.008 MHz, x1 = 0.1859): 2.902 ± 0.029 S/m
electrical conductivity (Frequency=0.008 MHz, x1 = 0.2493): 2.86 ± 0.029 S/m
electrical conductivity (Frequency=0.008 MHz, x1 = 0.3029): 2.79 ± 0.028 S/m
electrical conductivity (Frequency=0.008 MHz, x1 = 0.3845): 2.62 ± 0.026 S/m
electrical conductivity (Frequency=0.008 MHz, x1 = 0.4985): 2.33 ± 0.024 S/m
electrical conductivity (Frequency=0.008 MHz, x1 = 0.6954): 1.913 ± 0.019 S/m
electrical conductivity (Frequency=0.008 MHz, x1 = 0.9013): 1.608 ± 0.016 S/m
electrical conductivity (Frequency=0.008 MHz, x1 = 1): 1.527 ± 0.015 S/m
electrical conductivity (Frequency=0.00857143 MHz, x1 = 0.0463): 1.58 ± 0.028 S/m
electrical conductivity (Frequency=0.00857143 MHz, x1 = 0.0987): 2.38 ± 0.03 S/m
electrical conductivity (Frequency=0.00857143 MHz, x1 = 0.1449): 2.71 ± 0.029 S/m
electrical conductivity (Frequency=0.00857143 MHz, x1 = 0.1859): 2.902 ± 0.029 S/m

— the NIST ThermoML archive (doi:10.1016/j.jct.2015.08.014)
